According to patent US20250314586A1, “SYSTEMS AND METHODS FOR HIGH THROUGHPUT SINGLE MOLECULE TRACKING IN LIVING CELLS” (EIKON THERAPEUTICS, INC., priority 2022, published 2025):
Entries after “also recorded” stand apart in the source; their conditions may differ. Where two headings read alike, the source gives them in different places.

How the values were obtained:
Estrogen Receptor (ER) [1] = molecular target: T1, Estrogen Receptor (ER) (Homo sapiens, UniProt P03372); assay: htSMT of Halo-ER in U2OS cells (fbound, Dfree); format: cell-based; conditions: for effect of pathway inhibitors on ER fbound / ER movement: retest and dose titration of pathway inhibitors
T1 construct: expressed in transfected cells; host or cells: U2OS
T1 sequence (P03372 1-595): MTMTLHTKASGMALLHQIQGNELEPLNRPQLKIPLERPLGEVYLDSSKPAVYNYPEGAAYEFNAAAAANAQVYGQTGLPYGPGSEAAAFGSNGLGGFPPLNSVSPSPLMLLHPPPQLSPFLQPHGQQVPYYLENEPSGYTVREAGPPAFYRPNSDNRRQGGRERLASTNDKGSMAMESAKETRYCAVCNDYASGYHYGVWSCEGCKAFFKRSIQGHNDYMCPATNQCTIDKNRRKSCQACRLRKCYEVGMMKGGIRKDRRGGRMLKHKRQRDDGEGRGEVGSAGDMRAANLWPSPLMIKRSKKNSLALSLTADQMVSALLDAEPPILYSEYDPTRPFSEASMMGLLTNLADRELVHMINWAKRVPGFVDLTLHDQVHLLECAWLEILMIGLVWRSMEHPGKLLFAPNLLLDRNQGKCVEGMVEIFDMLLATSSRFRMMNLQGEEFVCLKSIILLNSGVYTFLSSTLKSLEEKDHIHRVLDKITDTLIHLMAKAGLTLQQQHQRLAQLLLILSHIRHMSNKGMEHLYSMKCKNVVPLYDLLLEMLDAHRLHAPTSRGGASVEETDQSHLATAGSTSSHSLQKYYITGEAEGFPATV

[2] = molecular target: T2, glucocorticoid receptor (GR) (Homo sapiens, UniProt P04150); assay: htSMT of Halo-GR in U2OS cells; format: cell-based; conditions: 1 μM antagonist, singly or co-administered with cognate agonist
T2 construct: Because U2OS cells express GR endogenously, HaloTag was inserted right before the stop codon of endogenous NR3C1; endogenous in cells; host or cells: U2OS (CRISPR/Cas9 knock-in at the NR3C1 locus)
T2 sequence (P04150 1-777): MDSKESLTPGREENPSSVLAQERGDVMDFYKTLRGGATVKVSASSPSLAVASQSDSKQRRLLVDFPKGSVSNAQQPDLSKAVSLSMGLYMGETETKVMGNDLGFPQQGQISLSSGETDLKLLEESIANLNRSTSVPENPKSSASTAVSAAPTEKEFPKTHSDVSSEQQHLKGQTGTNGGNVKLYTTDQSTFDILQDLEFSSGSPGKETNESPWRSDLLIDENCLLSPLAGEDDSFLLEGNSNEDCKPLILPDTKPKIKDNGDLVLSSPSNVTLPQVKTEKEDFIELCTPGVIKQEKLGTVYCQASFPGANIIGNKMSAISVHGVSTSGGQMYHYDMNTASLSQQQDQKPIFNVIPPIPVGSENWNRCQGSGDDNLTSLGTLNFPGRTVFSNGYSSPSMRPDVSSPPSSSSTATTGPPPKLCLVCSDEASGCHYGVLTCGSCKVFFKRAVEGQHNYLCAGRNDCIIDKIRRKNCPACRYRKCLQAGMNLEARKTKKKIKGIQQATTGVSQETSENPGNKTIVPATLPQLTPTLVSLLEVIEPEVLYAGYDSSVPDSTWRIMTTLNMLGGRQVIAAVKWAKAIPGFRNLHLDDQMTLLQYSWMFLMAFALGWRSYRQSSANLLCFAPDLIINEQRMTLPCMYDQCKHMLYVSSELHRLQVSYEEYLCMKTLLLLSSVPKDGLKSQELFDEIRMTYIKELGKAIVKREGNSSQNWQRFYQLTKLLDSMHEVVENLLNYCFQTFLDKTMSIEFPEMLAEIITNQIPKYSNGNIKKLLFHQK
Text: Where appropriate, compounds were serially diluted in an Echo Qualified 384-Well Low Dead Volume Source Microplate (0018544, Beckman Coulter) to generate dose-titration source material.

androgen receptor (AR) = androgen receptor (AR) (Homo sapiens, UniProt P10275)
androgen receptor (AR), sequence (P10275 whole entry): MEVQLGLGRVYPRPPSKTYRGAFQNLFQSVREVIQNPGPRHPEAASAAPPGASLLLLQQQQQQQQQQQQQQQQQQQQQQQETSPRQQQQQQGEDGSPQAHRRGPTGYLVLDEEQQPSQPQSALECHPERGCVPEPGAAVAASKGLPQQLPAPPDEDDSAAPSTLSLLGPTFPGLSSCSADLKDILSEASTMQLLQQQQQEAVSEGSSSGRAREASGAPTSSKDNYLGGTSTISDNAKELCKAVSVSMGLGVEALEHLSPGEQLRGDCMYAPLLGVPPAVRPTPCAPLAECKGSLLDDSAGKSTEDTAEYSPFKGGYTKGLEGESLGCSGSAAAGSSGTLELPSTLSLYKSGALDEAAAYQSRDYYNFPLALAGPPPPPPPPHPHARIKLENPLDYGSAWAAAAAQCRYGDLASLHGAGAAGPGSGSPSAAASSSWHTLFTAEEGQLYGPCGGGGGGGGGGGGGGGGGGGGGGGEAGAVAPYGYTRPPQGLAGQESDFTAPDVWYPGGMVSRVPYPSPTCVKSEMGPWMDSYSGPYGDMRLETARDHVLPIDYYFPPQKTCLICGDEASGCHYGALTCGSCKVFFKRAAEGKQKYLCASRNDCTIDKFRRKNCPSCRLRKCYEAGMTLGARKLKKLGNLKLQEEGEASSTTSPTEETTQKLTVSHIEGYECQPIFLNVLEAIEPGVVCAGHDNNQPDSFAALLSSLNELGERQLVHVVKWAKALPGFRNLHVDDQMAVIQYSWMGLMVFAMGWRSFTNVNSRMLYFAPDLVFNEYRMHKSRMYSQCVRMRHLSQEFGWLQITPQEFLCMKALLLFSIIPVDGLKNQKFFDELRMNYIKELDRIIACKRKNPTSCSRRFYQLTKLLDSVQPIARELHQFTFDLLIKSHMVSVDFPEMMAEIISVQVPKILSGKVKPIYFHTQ

Estrogen Receptor (ER) [3] = molecular target: T1, Estrogen Receptor (ER); assay: kinetic SMT (kSMT) of ER after compound addition; format: cell-based; conditions: 100 nM compound
Estrogen Receptor (ER) [4] = molecular target: T1, Estrogen Receptor (ER); assay: residence time imaging of ER-Halo (track length survival); format: cell-based; conditions: 100 nM HSP90 inhibition, normalized to DMSO
ER = ER (Homo sapiens, UniProt P03372); assay: Western blot of ER after compound treatment; format: cell-based; conditions: 100 nM fulvestrant, 24 hours; MCF7, T47d, U2OS Halo-ER
Method: Cells were grown in the same conditions as described previously. […] Cells are lysed in 200 μL 1× Cell Lysis Buffer (catalogue number 9803, Cell Signaling). Protein lysate concentration is then determined using BCA protein assay kit (Catalog number 23225, Pierce™ BCA Protein Assay Kit) following manufacturer instructions. Capillary Western Immunoassay were performed using Jess Protein Simple following manufacturer's instruction (protein simple, USA). Levels of αER (1:100, RM-9101) were normalized to loading control β-tubulin (1:100, NC0244815 LI-COR 92642213, Thermo Fisher). The peaks were analyzed with the Compass software (Protein Simple, USA).

Row | Compound | effect of pathway inhibitors on ER fbound / ER movement (Estrogen Receptor (ER) [1]) | t1/2 of increase in ER fbound (Estrogen Receptor (ER) [3]) | time at which overall effect on ER fbound reaches plateau (Estrogen Receptor (ER) [3]) | decrease in total number of long binding events (Estrogen Receptor (ER) [4]) | further results
1 | 4-hydroxytamoxifen |  |  |  |  | change in ER fbound, bioactive screen (Estrogen Receptor (ER) [1]): significantly increased fbound; maximal increase in ER fbound, compared with SERDs fulvestrant and GDC-0927 (Estrogen Receptor (ER) [1]): lower maximal increases in fbound
2 | CN(C)c1ccc(C(c2ccc(N(C)C)cc2)c2cc([N+](=O)[O-])ccc2Cl)cc1 [AL082D06] |  |  |  |  | effect on GR chromatin binding (fbound) [2]: decrease in chromatin binding
3 | CC(O)c1cc(C(=O)N[C@@H](C)Cn2ccc(-c3ccc(C#N)c(Cl)c3)n2)[nH]n1 (some centres unmarked) [Darolutamide] |  |  |  |  | effect on AR chromatin binding (fbound) (androgen receptor (AR)): decrease in chromatin binding
4 | COc1cccc(-c2cc(F)ccc2[C@H]2Cc3nc(N)nc(C)c3C(=O)N2)n1 [HSP990] | increase in fbound | 17.5 min | plateau after an hour | two | 
5 | C[C@]12CC[C@@H]3c4ccc(O)cc4C[C@@H](CCCCCCCCC[S+]([O-])CCCC(F)(F)C(F)(F)F)[C@H]3[C@@H]1CC[C@@H]2O (some centres unmarked) [fulvestrant] |  |  |  |  | change in ER fbound, bioactive screen (Estrogen Receptor (ER) [1]; 1 μM compound versus DMSO, 5,067-molecule screen): caused an increase in fbound; also recorded: significantly increased fbound; ER degradation by western blot (ER): leads to the degradation of ER
6 | CC(C)c1cc(-c2n[nH]c(=O)n2-c2ccc3c(ccn3C)c2)c(O)cc1O [ganetespib] | increase in fbound | 19.3 min | plateau after an hour | four | 
